In one assay the test system is SK-Br3 (ATCC: HTB-30). Put plainly: Test of cancer cell growth inhibition (SRB), SK-Br3. The settings on record: read-out: IC50 SK-Br-3.
The test system of another assay is A431 (ATCC: CRL-1555). The assay is described as follows: Test of cancer cell growth inhibition (SRB), A431. Particulars: read-out: IC50 A431.
Setting [1] is: Erb-B2 overexpressed SK-Br3, 72 hours, SRB.
The mark [2] stands for this setting: EGFR overexpressed A431, 72 hours, SRB.

pIC50: −log10 of the molar value. Where two headings read alike, the source gives them in different places.

The term pIC50 denotes the negative decadic logarithm of the IC50, by convention in mol/L. In the case of `CC(C)(C)OC(=O)NCC(=O)Nc1ccc2ncnc(Nc3ccc(OCc4cccc(F)c4)c(Cl)c3)c2c1` [Example 1-5, ({4-[3-chloro-4-(3-fluoro-benzyloxy)-phenylamino]-quinazolin-6-ylcarbamoyl}-methyl)-carbamic acid t-butylester], the negative-log IC50 (pIC50) in the assay on SK-Br3 (ATCC: HTB-30) (Homo sapiens, SK-BR-3, 72 h) was 6.44; with A431 (ATCC: CRL-1555) (Homo sapiens, A-431, 72 h), 6.39.

In the case of `COCC(=O)N[C@@H](CCSC)C(=O)Nc1ccc2ncnc(Nc3ccc(OCc4cccc(F)c4)c(Cl)c3)c2c1` [Example 7-2, (2S)—N-{4-[3-chloro-4-(3-fluoro-benzyloxy)-phenylamino]-quinazolin-6-yl}-2-(2-methoxy-acetylamino)-4-methanesulfanyl-butyramide], the pIC50 in the assay with SK-Br3 (ATCC: HTB-30) (setting [1]) is 6.58; in the assay with A431 (ATCC: CRL-1555) (setting [2]) it was 6.13.

With `CSCC[C@H](NC(=O)CS(C)(=O)=O)C(=O)Nc1ccc2ncnc(Nc3ccc(OCc4cccc(F)c4)c(Cl)c3)c2c1` [Example 8, (2S)—N-{4-[3-chloro-4-(3-fluoro-benzyloxy)-phenylamino]-quinazolin-6-yl}-2-(2-methanesulfonyl-acetamino)-4-methanesulfanyl-butyramide], the values for the pIC50 in the assay with SK-Br3 (ATCC: HTB-30) (setting [1]) and in the assay on A431 (ATCC: CRL-1555) (setting [2]) were 6.72 and 6.51, respectively.

In the case of `COCC(=O)N[C@H](C(=O)Nc1ccc2ncnc(Nc3ccc(OCc4cccc(F)c4)c(Cl)c3)c2c1)c1ccccc1` [Example 11, (2S)—N-{4-[3-chloro-4-(3-fluoro-benzyloxy)-phenylamino]-quinazolin-6-yl}-2-(2-methoxy-acetylamino)-2-phenyl-acetamide], the pIC50 in the assay on SK-Br3 (ATCC: HTB-30) (Homo sapiens, SK-BR-3, 72 h) is 6.95; with A431 (ATCC: CRL-1555) (Homo sapiens, A-431, 72 h) it was 6.60.

On to `CS(=O)(=O)CC(=O)N1CCCC1C(=O)Nc1ccc2ncnc(Nc3ccc(OCc4cccc(F)c4)c(Cl)c3)c2c1` (stereo not shown) [Example 17, 1-(2-methanesulfonyl-acetyl)-pyrrolidine-2-carboxylic acid {4-[3-chloro-4-(3-fluoro-benzyloxy)-phenylamino]-quinazolin-6-yl}-amide], for which the pIC50 in the assay with SK-Br3 (ATCC: HTB-30) (Homo sapiens, SK-BR-3, 72 h) was 6.74; in the assay on A431 (ATCC: CRL-1555) (Homo sapiens, A-431, 72 h) it was 6.15.

As to `CC(C)(C)OC(=O)NCCC(=O)Nc1ccc2ncnc(Nc3ccc(OCc4cccc(F)c4)c(Cl)c3)c2c1` [Example 19, (2-{4-[3-chloro-4-(3-fluoro-benzyloxy)-phenylamino]-quinazolin-6-ylcarbamoyl}-ethyl)-carbamic acid t-butylester], the negative-log IC50 (pIC50) in the assay on SK-Br3 (ATCC: HTB-30) (Homo sapiens, SK-BR-3, 72 h) is 6.37; in the assay on A431 (ATCC: CRL-1555) (Homo sapiens, A-431, 72 h), 6.47.

Turning to `O=C(CCc1ccccc1)NCCC(=O)Nc1ccc2ncnc(Nc3ccc(OCc4cccc(F)c4)c(Cl)c3)c2c1` [Example 23, 3-phenyl-propionylic acid (2-{4-[3-chloro-4-(3-fluoro-benzyloxy)-phenylamino]-quinazolin-6-ylcarbamoyl}-ethyl)-amide], the pIC50 was 6.44 in the assay with SK-Br3 (ATCC: HTB-30) (setting [1]) and 6.50 in the assay on A431 (ATCC: CRL-1555) (setting [2]).

With `O=C(C=Cc1ccccc1)NCCC(=O)Nc1ccc2ncnc(Nc3ccc(OCc4cccc(F)c4)c(Cl)c3)c2c1` [Example 26, N-(2-{4-[3-chloro-4-(3-fluoro-benzyloxy)-phenylamino]-quinazolin-6-ylcarbamoyl}-ethyl)-3-phenyl-acrylamide], the pIC50 is 6.06 with SK-Br3 (ATCC: HTB-30) (Homo sapiens, SK-BR-3, 72 h) and 6.10 in the assay with A431 (ATCC: CRL-1555) (Homo sapiens, A-431, 72 h).

With `Cc1cc(C(=O)NCCC(=O)Nc2ccc3ncnc(Nc4ccc(OCc5cccc(F)c5)c(Cl)c4)c3c2)on1` [Example 32, 3-methyl-isoxazol-5-carboxylic acid (2-{4-[3-chloro-4-(3-fluoro-benzyloxy)-phenylamino]-quinazolin-6-ylcarbamoyl}-ethyl)-amide], the pIC50 is 6.79 in the assay on SK-Br3 (ATCC: HTB-30) (Homo sapiens, SK-BR-3, 72 h) and 6.51 in the assay on A431 (ATCC: CRL-1555) (Homo sapiens, A-431, 72 h).

In the case of `O=C(CCNC(=O)c1ccoc1)Nc1ccc2ncnc(Nc3ccc(OCc4cccc(F)c4)c(Cl)c3)c2c1` [Example 33, furan-3-carboxylic acid (2-{4-[3-chloro-4-(3-fluoro-benzyloxy)-phenylamino]-quinazolin-6-ylcarbamoyl}-ethyl)-amide], the negative logarithm of the IC50 (pIC50) was 6.88 in the assay on SK-Br3 (ATCC: HTB-30) (Homo sapiens, SK-BR-3, 72 h) and 6.46 in the assay with A431 (ATCC: CRL-1555) (Homo sapiens, A-431, 72 h).

Consider `O=C(CCNC(=O)c1cn[nH]c1)Nc1ccc2ncnc(Nc3ccc(OCc4cccc(F)c4)c(Cl)c3)c2c1` [Example 34, 1H-pyrazol-4-carboxylic acid (2-{4-[3-chloro-4-(3-fluoro-benzyloxy)-phenylamino]-quinazolin-6-ylcarbamoyl}-ethyl)-amide], for which the pIC50 was 6.85 in the assay on SK-Br3 (ATCC: HTB-30) (Homo sapiens, SK-BR-3, 72 h) and 6.05 in the assay with A431 (ATCC: CRL-1555) (Homo sapiens, A-431, 72 h).

Consider `O=C(CCNC(=O)C1CC1)Nc1ccc2ncnc(Nc3ccc(OCc4cccc(F)c4)c(Cl)c3)c2c1` [Example 37, cyclopropylcarboxylic acid (2-{4-[3-chloro-4-(3-fluoro-benzyloxy)-phenylamino]-quinazolin-6-ylcarbamoyl}-ethyl)-amide], for which the pIC50 in the assay with SK-Br3 (ATCC: HTB-30) (Homo sapiens, SK-BR-3, 72 h) was 6.80; in the assay with A431 (ATCC: CRL-1555) (Homo sapiens, A-431, 72 h), 6.86.

Take `CC(CNC(=O)OC(C)(C)C)C(=O)Nc1ccc2ncnc(Nc3ccc(OCc4cccc(F)c4)c(Cl)c3)c2c1` (stereo not shown) [Example 41, (2-{4-[3-chloro-4-(3-fluoro-benzyloxy)-phenylamino]-quinazolin-6-ylcarbamoyl}-propyl)-carbamic acid t-butylester]: the negative-log IC50 (pIC50) in the assay on SK-Br3 (ATCC: HTB-30) (Homo sapiens, SK-BR-3, 72 h) was 6.76; in the assay with A431 (ATCC: CRL-1555) (Homo sapiens, A-431, 72 h), 6.03.

In the case of `CC(CNC(=O)CS(C)(=O)=O)C(=O)Nc1ccc2ncnc(Nc3ccc(OCc4cccc(F)c4)c(Cl)c3)c2c1` (stereo not shown) [Example 43, N-{4-[3-chloro-4-(3-fluoro-benzyloxy)-phenylamino]-quinazolin-6-yl}-3-(2-methanesulfonyl-acetylamino)-2-methyl-propionamide], the negative logarithm of the IC50 (pIC50) with SK-Br3 (ATCC: HTB-30) (Homo sapiens, SK-BR-3, 72 h) was 6.94; with A431 (ATCC: CRL-1555) (Homo sapiens, A-431, 72 h) it was 6.41.

On to `COCC(=O)Nc1ccsc1C(=O)Nc1ccc2ncnc(Nc3ccc(OCc4cccc(F)c4)c(Cl)c3)c2c1` [Example 48, 3-(2-methoxy-acetylamino)-thiophene-2-carboxylic acid {4-[3-chloro-4-(3-fluoro-benzyloxy)-phenylamino]-quinazolin-6-yl}-amide], for which the pIC50 in the assay on SK-Br3 (ATCC: HTB-30) (Homo sapiens, SK-BR-3, 72 h) was 6.88; in the assay on A431 (ATCC: CRL-1555) (Homo sapiens, A-431, 72 h) it was 6.08.

For `Cc1ccc(Oc2ccc(Nc3ncnc4ccc(NC(=O)CCNC(=O)CS(C)(=O)=O)cc34)cc2C)cn1` [Example 50-2, 3-(2-methanesulfonyl-acetylamino)-N-{4-[3-methyl-4-(6-methyl-pyridin-3-yloxy)-phenylamino]-quinazolin-6-yl}-propionamide], the negative logarithm of the IC50 (pIC50) in the assay on SK-Br3 (ATCC: HTB-30) (Homo sapiens, SK-BR-3, 72 h) was 7.00; in the assay on A431 (ATCC: CRL-1555) (Homo sapiens, A-431, 72 h), 6.07.

As for `CS(=O)(=O)CC(=O)NCCC(=O)Nc1ccc2ncnc(Nc3ccc(F)c(Cl)c3)c2c1` [Example 53-2, N-[4-(3-chloro-4-fluoro-phenylamino)-quinazolin-6-yl]-3-(2-methanesulfonyl-acetylamino)-propionamide], the negative-log IC50 (pIC50) in the assay with SK-Br3 (ATCC: HTB-30) (Homo sapiens, SK-BR-3, 72 h) is 6.59; in the assay on A431 (ATCC: CRL-1555) (Homo sapiens, A-431, 72 h) it was 6.91.

Regarding `CN(C)CC=CC(=O)NCCC(=O)Nc1ccc2ncnc(Nc3ccc(OCc4cccc(F)c4)c(Cl)c3)c2c1` [Example 56, 4-dimethylamino-but-2-enonylic acid (2-{4-[3-chloro-4-(3-fluoro-benzyloxy)-phenylamino]-quinazolin-6-ylcarbamoyl}-ethyl)-amide], the pIC50 with SK-Br3 (ATCC: HTB-30) (setting [1]) is 7.29; with A431 (ATCC: CRL-1555) (setting [2]) it was 6.21.

As for `O=C(C=CCN1CCOCC1)NCCC(=O)Nc1ccc2ncnc(Nc3ccc(OCc4cccc(F)c4)c(Cl)c3)c2c1` [Example 57, 4-morpholin-4-yl-but-2-enonylic acid (2-{4-[3-chloro-4-(3-fluoro-benzyloxy)-phenylamino]-quinazolin-6-ylcarbamoyl}-ethyl)-amide], the pIC50 in the assay on SK-Br3 (ATCC: HTB-30) (setting [1]) is 7.37; in the assay with A431 (ATCC: CRL-1555) (setting [2]), 6.20.

As for `CN1CCN(CC(=O)NCCC(=O)Nc2ccc3ncnc(Nc4ccc(OCc5cccc(F)c5)c(Cl)c4)c3c2)CC1` [Example 64, N-{4-[3-chloro-4-(3-fluoro-benzyloxy)-phenylamino]-quinazolin-6-yl}-3-[2-(4-methyl-piperazin-1-yl)-acetylamino]-propionamide], the pIC50 in the assay on SK-Br3 (ATCC: HTB-30) (Homo sapiens, SK-BR-3, 72 h) was 6.67; in the assay on A431 (ATCC: CRL-1555) (Homo sapiens, A-431, 72 h) it was 6.16.

Consider `CS(=O)(=O)CC(=O)NCCCC(=O)Nc1ccc2ncnc(Nc3ccc(OCc4cccc(F)c4)c(Cl)c3)c2c1` [Example 88, N-{4-[3-chloro-4-(3-fluoro-benzyloxy)-phenylamino]-quinazolin-6-yl}-4-(2-methanesulfonyl-acetylamino)-butyramide], for which the pIC50 was 7.21 in the assay with SK-Br3 (ATCC: HTB-30) (Homo sapiens, SK-BR-3, 72 h) and 6.14 in the assay with A431 (ATCC: CRL-1555) (Homo sapiens, A-431, 72 h).

Consider `O=C(CCCNC(=O)c1ccccc1)Nc1ccc2ncnc(Nc3ccc(OCc4cccc(F)c4)c(Cl)c3)c2c1` [Example 90, N-(3-{4-[3-chloro-4-(3-fluoro-benzyloxy)-phenylamino]-quinazolin-6-ylcarbamoyl}-propyl)-benzamide], for which the negative-log IC50 (pIC50) in the assay on SK-Br3 (ATCC: HTB-30) (Homo sapiens, SK-BR-3, 72 h) was 6.20; in the assay on A431 (ATCC: CRL-1555) (Homo sapiens, A-431, 72 h) it was 6.37.

For the compound `CCOC(=O)C(=O)NCCCC(=O)Nc1ccc2ncnc(Nc3ccc(OCc4cccc(F)c4)c(Cl)c3)c2c1` [Example 91, N-(3-{4-[3-chloro-4-(3-fluoro-benzyloxy)-phenylamino]-quinazolin-6-ylcarbamoyl}-propyl)-oxalamic acid ethylester], the negative logarithm of the IC50 (pIC50) in the assay on SK-Br3 (ATCC: HTB-30) (Homo sapiens, SK-BR-3, 72 h) was 6.35; in the assay on A431 (ATCC: CRL-1555) (Homo sapiens, A-431, 72 h), 6.22.

As to `O=C(CCCNC(=O)C1CC1)Nc1ccc2ncnc(Nc3ccc(OCc4cccc(F)c4)c(Cl)c3)c2c1` [Example 92, cyclopropylcarboxylic acid (3-{4-[3-chloro-4-(3-fluoro-benzyloxy)-phenylamino]-quinazolin-6-ylcarbamoyl}-propyl)-amide], the pIC50 in the assay with SK-Br3 (ATCC: HTB-30) (Homo sapiens, SK-BR-3, 72 h) was 7.10; in the assay on A431 (ATCC: CRL-1555) (Homo sapiens, A-431, 72 h) it was 6.53.

For `O=C(CCCNC(=O)c1ccoc1)Nc1ccc2ncnc(Nc3ccc(OCc4cccc(F)c4)c(Cl)c3)c2c1` [Example 94, furan-3-carboxylic acid (3-{4-[3-chloro-4-(3-fluoro-benzyloxy)-phenylamino]-quinazolin-6-ylcarbamoyl}-propyl)-amide], the negative-log IC50 (pIC50) in the assay with SK-Br3 (ATCC: HTB-30) (Homo sapiens, SK-BR-3, 72 h) is 7.15; in the assay with A431 (ATCC: CRL-1555) (Homo sapiens, A-431, 72 h) it was 6.61.

Turning to `O=C(CCCNC(=O)c1cn[nH]c1)Nc1ccc2ncnc(Nc3ccc(OCc4cccc(F)c4)c(Cl)c3)c2c1` [Example 95, 1H-pyrazol-4-carboxylic acid (3-{4-[3-chloro-4-(3-fluoro-benzyloxy)-phenylamino]-quinazolin-6-ylcarbamoyl}-propyl)-amide], the pIC50 with SK-Br3 (ATCC: HTB-30) (Homo sapiens, SK-BR-3, 72 h) is 6.48; in the assay with A431 (ATCC: CRL-1555) (Homo sapiens, A-431, 72 h), 6.00.
